Test results reported in ChEMBL document CHEMBL4261502, “Histone lysine methyltransferase structure activity relationships that allow for segregation of G9a inhibition and anti-Plasmodium activity” (Medchemcomm, 2017).

These compounds were tested on Plasmodium falciparum (assay: Antiplasmodial activity against Plasmodium falciparum 3D7 after 3 days by SYBR green1 dye based assay). Conditions: 3D7, 72 h.
Type: functional, organism-based

COc1cc2c(NC3CCN(C)CC3)nc(N3CCCN(C)CC3)nc2cc1OCCN(C)C and COc1cc2c(NC3CCN(C)CC3)nc(N3CCCN(C)CC3)nc2cc1OCCCN(C)C cannot be ordered by IC50: over 2000 nM for the first, over 2000 nM for the second.

COc1cc2c(NC3CCN(C)CC3)nc(N3CCCN(C)CC3)nc2cc1OCCCN1CCCC1 and COc1cc2c(NC3CCN(C)CC3)nc(N3CCCN(C)CC3)nc2cc1OCCCN1CCCCC1 cannot be ordered by IC50: over 2000 nM for the first, over 2000 nM for the second.

COc1cc2c(NC3CCN(C)CC3)nc(N3CCCN(C)CC3)nc2cc1OCc1ccccc1 and COc1cc2nc(N3CCCN(C)CC3)nc(NC3CCN(Cc4ccccc4)CC3)c2cc1OC are the same in IC50: 43 nM for the first, 43 nM for the second.

COc1cc2nc(N3CCN(C)CC3)nc(NC3CCN(C)CC3)c2cc1OC and COc1cc2nc(N3CCCN(C)CC3)nc(NC3CCN(C)CC3)c2cc1OC cannot be ordered by IC50: over 300 nM for the first, over 300 nM for the second.
